Measured values taken from PubChem BioAssay (NCI).
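Exposure lasted 48 hours, with cells grown in 96-well plates and compounds tested at five concentrations. GI50 marks 50% less growth. At the TGI there is no net growth.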

Key:
Assay in all cases: NCI anticancer screen, dose series, 48 h
[1] = system: SNB-19 CNS
[2] = system: LOX IMVI melanoma
[3] = system: KM12 colon
[4] = system: RXF 393 renal
[5] = system: NCI-H23 lung
[6] = system: OVCAR-8 ovarian
[7] = system: EKVX NSCLC
[8] = system: NCI-H226 lung
[9] = system: NCI-H522 lung
[10] = system: SK-MEL-28 melanoma
[11] = system: PC-3 prostate
[12] = system: SK-MEL-2 melanoma
[13] = system: MALME-3M melanoma
[14] = system: MCF7 breast
[15] = system: NCI-H460 lung
[16] = system: T-47D breast
[17] = system: HT29 colon
[18] = system: OVCAR-4 ovarian
[19] = system: MDA-MB-231 breast
[20] = system: COLO 205 colon
[21] = system: NCI/ADR-RES ovarian
[22] = system: TK-10 renal
[23] = system: HCT-116 colon
[24] = system: ACHN renal
[25] = system: RPMI-8226 leukemia
[26] = system: HOP-62 NSCLC
[27] = system: SN12C renal
[28] = system: HS 578T breast
[29] = system: MDA-MB-468 breast
[30] = system: M14 melanoma
[31] = system: SR leukemia
[32] = system: SK-OV-3 ovarian
[33] = system: UO-31 renal
[34] = system: SF-539 CNS
[35] = system: K-562 leukemia
[36] = system: UACC-62 melanoma
[37] = system: 786-0 renal
[38] = system: CAKI-1 renal
[39] = system: A549 NSCLC
[40] = system: UACC-257 melanoma
[41] = system: A498 renal
[42] = system: HL-60(TB) leukemia
[43] = system: SF-268 CNS
[44] = system: MOLT-4 leukemia
[45] = system: SF-295 CNS
[46] = system: BT-549 breast
[47] = system: OVCAR-5 ovarian
[48] = system: U251 CNS
[49] = system: CCRF-CEM leukemia
[50] = system: HCT-15 colon
[51] = system: IGROV1 ovarian
[52] = system: OVCAR-3 ovarian
[53] = system: HOP-92 NSCLC
[54] = system: SW-620 colon
[55] = system: SNB-75 CNS
[56] = system: MDA-MB-435
[57] = system: DU-145 prostate
[58] = system: SK-MEL-5 melanoma
[59] = system: HCC-2998 colon

COc1ccc(Cc2nn(CC(=O)N/N=C/c3ccc(Br)cc3)c(=O)c3c(C)noc23)cc1
GI50 [1]: 14.6 µM | TGI [1]: 33.1 µM | GI50 [2]: 3.54 µM | TGI [2]: 52.8 µM | GI50 [3]: > 100 µM | TGI [3]: > 100 µM | GI50 [4]: 2.75 µM | TGI [4]: 11.4 µM | GI50 [5]: 7.06 µM | TGI [5]: 22.8 µM | GI50 [6]: 17.4 µM | TGI [6]: > 100 µM | GI50 [7]: 14.5 µM | TGI [7]: 83.1 µM | GI50 [8]: 2.52 µM | TGI [8]: 13.4 µM | GI50 [9]: 8.77 µM | TGI [9]: 41.6 µM | GI50 [10]: 36.9 µM | TGI [10]: > 100 µM | GI50 [11]: 10.4 µM | TGI [11]: > 100 µM | GI50 [12]: 16.4 µM | TGI [12]: 32.1 µM | GI50 [13]: 5.48 µM | TGI [13]: 29.1 µM | GI50 [14]: 3.44 µM | TGI [14]: > 100 µM | GI50 [15]: 1.56 µM | TGI [15]: 16.4 µM | GI50 [16]: 0.97 µM | TGI [16]: 9.48 µM | GI50 [17]: 5.05 µM | TGI [17]: > 100 µM | GI50 [18]: 0.511 µM | TGI [18]: 2.12 µM | GI50 [19]: 5.73 µM | TGI [19]: 25.8 µM | GI50 [20]: > 100 µM | TGI [20]: > 100 µM | GI50 [21]: 4.6 µM | TGI [21]: > 100 µM | GI50 [22]: 10.1 µM | TGI [22]: 23.9 µM | GI50 [23]: 0.81 µM | TGI [23]: 10.3 µM | GI50 [24]: 2.65 µM | TGI [24]: 11.2 µM | GI50 [25]: 69.9 µM | TGI [25]: > 100 µM | GI50 [26]: 10.6 µM | TGI [26]: 26.4 µM | GI50 [27]: 1.63 µM | TGI [27]: 11.5 µM | GI50 [28]: 3.61 µM | TGI [28]: 61.2 µM | GI50 [29]: 7.58 µM | TGI [29]: 27.4 µM | GI50 [30]: 18.5 µM | TGI [30]: > 100 µM | GI50 [31]: 14.6 µM | TGI [31]: > 100 µM | GI50 [32]: 5.55 µM | TGI [32]: 20.1 µM | GI50 [33]: 2.98 µM | TGI [33]: 15.3 µM | GI50 [34]: 11.9 µM | TGI [34]: 25.4 µM | GI50 [35]: 14.8 µM | TGI [35]: > 100 µM | GI50 [36]: 14.1 µM | TGI [36]: > 100 µM | GI50 [37]: 1.48 µM | TGI [37]: 6.94 µM | GI50 [38]: 5.21 µM | TGI [38]: 19.1 µM | GI50 [39]: 1.49 µM | TGI [39]: > 100 µM | GI50 [40]: > 100 µM | TGI [40]: > 100 µM | GI50 [41]: 3.01 µM | TGI [41]: 8.8 µM | GI50 [42]: > 100 µM | TGI [42]: > 100 µM | GI50 [43]: 14.8 µM | TGI [43]: 52.6 µM | GI50 [44]: 7.82 µM | TGI [44]: > 100 µM | GI50 [45]: 10.3 µM | TGI [45]: 23.4 µM | GI50 [46]: 18.2 µM | TGI [46]: 58 µM | GI50 [47]: 16.8 µM | TGI [47]: > 100 µM | GI50 [48]: 2.03 µM | TGI [48]: 13.4 µM | GI50 [49]: 7.87 µM | TGI [49]: > 100 µM | GI50 [50]: 12.3 µM | TGI [50]: > 100 µM | GI50 [51]: 12.4 µM | TGI [51]: 32.3 µM | GI50 [52]: 2.27 µM | TGI [52]: 10.9 µM | GI50 [53]: 4.98 µM | TGI [53]: 21.2 µM | GI50 [54]: 3.07 µM | TGI [54]: > 100 µM | GI50 [55]: 0.287 µM | TGI [55]: 1.41 µM | GI50 [56]: 30.5 µM | TGI [56]: > 100 µM | GI50 [57]: 16.1 µM | TGI [57]: > 100 µM | GI50 [58]: > 100 µM | TGI [58]: > 100 µM | GI50 [59]: 34.5 µM | TGI [59]: > 100 µM
